Activity calls are given as the source filed them. The calls are words filed in the database; no cut-off is given here.
Columns and labels:
U-937 [1] = test: Antiproliferative activity against human U937 cells after 48 hrs by WST-8 assay; type: functional, cell-based; settings: U-937, 48 h
U-937 [2] = test: Antiproliferative activity against human U937 cells after 24 hrs by WST-8 assay; type: functional, cell-based; settings: U-937, 24 h
U-937 [3] = test: Antiproliferative activity against human U937 cells after 72 hrs by WST-8 assay; type: functional, cell-based; settings: U-937, 72 h
HT-1080 [4] = test: Antiproliferative activity against human HT1080 cells at 3 uM after 48 hrs by MTT assay; type: functional; settings: HT-1080, 48 h
HT-1080 [5] = test: Antiproliferative activity against human HT1080 cells at 10 uM after 72 hrs by MTT assay; type: functional; settings: HT-1080, 72 h
HT-1080 [6] = test: Inhibition of invasion of human HT1080 cells at 10 uM after 24 hrs; type: functional; settings: HT-1080, 24 h
HT-1080 [7] = test: Antiproliferative activity against human HT1080 cells at 30 uM after 48 hrs by calcein-AM assay; type: functional; settings: HT-1080, 48 h
HT-1080 [8] = test: Inhibition of proMMP9 production in human HT1080 cells by gelatin zymography analysis; type: functional, cell-based
HT-1080 [9] = test: Antiproliferative activity against human HT1080 cells at 10 uM after 24 hrs by calcein-AM assay; type: functional; settings: HT-1080, 24 h
HT-1080 [10] = test: Antiproliferative activity against human HT1080 cells at 30 uM after 72 hrs by MTT assay; type: functional; settings: HT-1080, 72 h
HT-1080 [11] = test: Antiproliferative activity against human HT1080 cells at 3 uM after 72 hrs by calcein-AM assay; type: functional; settings: HT-1080, 72 h
HT-1080 [12] = test: Antiproliferative activity against human HT1080 cells at 1 uM after 48 hrs by calcein-AM assay; type: functional; settings: HT-1080, 48 h
HT-1080 [13] = test: Inhibition of proMMP2 production in human HT1080 cells by gelatin zymography analysis; type: functional, cell-based
HT-1080 [14] = test: Inhibition of invasion of human HT1080 cells at 1 uM after 24 hrs; type: functional; settings: HT-1080, 24 h
HT-1080 [15] = test: Antiproliferative activity against human HT1080 cells at 3 uM after 72 hrs by MTT assay; type: functional; settings: HT-1080, 72 h
HT-1080 [16] = test: Antiproliferative activity against human HT1080 cells at 1 uM after 72 hrs by calcein-AM assay; type: functional; settings: HT-1080, 72 h
HT-1080 [17] = test: Antiproliferative activity against human HT1080 cells at 30 uM after 48 hrs by MTT assay; type: functional; settings: HT-1080, 48 h
HT-1080 [18] = test: Antiproliferative activity against human HT1080 cells at 3 uM after 24 hrs by calcein-AM assay; type: functional; settings: HT-1080, 24 h
HT-1080 [19] = test: Antiproliferative activity against human HT1080 cells at 30 uM after 24 hrs by MTT assay; type: functional; settings: HT-1080, 24 h
HT-1080 [20] = test: Antiproliferative activity against human HT1080 cells at 1 uM after 24 hrs by calcein-AM assay; type: functional; settings: HT-1080, 24 h
HT-1080 [21] = test: Inhibition of invasion of human HT1080 cells at 30 uM after 24 hrs; type: functional; settings: HT-1080, 24 h
HT-1080 [22] = test: Antiproliferative activity against human HT1080 cells at 1 uM after 72 hrs by MTT assay; type: functional; settings: HT-1080, 72 h
HT-1080 [23] = test: Antiproliferative activity against human HT1080 cells at 10 uM after 48 hrs by calcein-AM assay; type: functional; settings: HT-1080, 48 h
HT-1080 [24] = test: Antiproliferative activity against human HT1080 cells at 10 uM after 72 hrs by calcein-AM assay; type: functional; settings: HT-1080, 72 h
HT-1080 [25] = test: Antiproliferative activity against human HT1080 cells at 3 uM after 24 hrs by MTT assay; type: functional; settings: HT-1080, 24 h
HT-1080 [26] = test: Antiproliferative activity against human HT1080 cells at 10 uM after 48 hrs by MTT assay; type: functional; settings: HT-1080, 48 h
HT-1080 [27] = test: Antiproliferative activity against human HT1080 cells at 1 uM after 48 hrs by MTT assay; type: functional; settings: HT-1080, 48 h
HT-1080 [28] = test: Antiproliferative activity against human HT1080 cells at 3 uM after 48 hrs by calcein-AM assay; type: functional; settings: HT-1080, 48 h
HT-1080 [29] = test: Inhibition of invasion of human HT1080 cells at 3 uM after 24 hrs; type: functional; settings: HT-1080, 24 h
HT-1080 [30] = test: Antiproliferative activity against human HT1080 cells at 1 uM after 24 hrs by MTT assay; type: functional; settings: HT-1080, 24 h
HT-1080 [31] = test: Antiproliferative activity against human HT1080 cells at 30 uM after 24 hrs by calcein-AM assay; type: functional; settings: HT-1080, 24 h
HT-1080 [32] = test: Antiproliferative activity against human HT1080 cells at 10 uM after 24 hrs by MTT assay; type: functional; settings: HT-1080, 24 h
HT-1080 [33] = test: Antiproliferative activity against human HT1080 cells at 30 uM after 72 hrs by calcein-AM assay; type: functional; settings: HT-1080, 72 h

O=c1c(-c2ccc(O)c(O)c2)coc2cc(O)cc(O)c12 [OROBOL]
IC50 (U-937 [1]): > 100 µM
IC50 (U-937 [2]): 73 µM
IC50 (U-937 [3]): > 100 µM

COc1cc(O)c(-c2coc3cc(O)ccc3c2=O)cc1OC
IC50 (U-937 [1]): 72 µM
IC50 (U-937 [2]): > 100 µM
IC50 (U-937 [3]): 48 µM

Oc1ccc2c(c1)OC[C@H]1c3cc4c(cc3O[C@@H]21)OCO4 [MAACKIAIN]
IC50 (U-937 [1]): > 100 µM
IC50 (U-937 [2]): > 100 µM
IC50 (U-937 [3]): > 100 µM

COc1cc([C@H]2Oc3cc(O)ccc3C(=O)[C@@H]2O)ccc1O [ERYCIBENIN D]
IC50 (U-937 [1]): > 100 µM
IC50 (U-937 [2]): > 100 µM
IC50 (U-937 [3]): > 100 µM

COc1ccc2c(c1)OC[C@H]1c3cc4c(cc3O[C@@H]21)OCO4 [PTEROCARPIN]
IC50 (U-937 [1]): > 100 µM
IC50 (U-937 [2]): > 100 µM
IC50 (U-937 [3]): > 100 µM

COc1ccc2c(=O)c(-c3ccc(OC)c(OC)c3)coc2c1
IC50 (U-937 [1]): > 100 µM
IC50 (U-937 [2]): > 100 µM
IC50 (U-937 [3]): > 100 µM

COc1ccc2c(c1)OC[C@@]1(OC)c3cc4c(cc3O[C@@H]21)OCO4 [ERYCIBENIN C]
IC50 (U-937 [1]): > 100 µM
IC50 (U-937 [2]): > 100 µM
IC50 (U-937 [3]): > 100 µM

C=C(C)[C@H]1Cc2c(ccc3c2O[C@@H]2COc4cc(OC)c(OC)cc4[C@]2(O)C3=O)O1 [ROTENOLONE]
inhibition at 3 µM (HT-1080 [4]): 96.9%
inhibition at 10 µM (HT-1080 [5]): 98.3%
inhibition at 10 µM (HT-1080 [6]): 64.9%
inhibition at 30 µM (HT-1080 [7]): 53.6%
Activity (HT-1080 [8]): Active
inhibition at 10 µM (HT-1080 [9]): 24.4%
inhibition at 30 µM (HT-1080 [10]): 98.5%
inhibition at 3 µM (HT-1080 [11]): 97.1%
inhibition at 1 µM (HT-1080 [12]): 52.2%
Activity (HT-1080 [13]): Active
inhibition at 1 µM (HT-1080 [14]): 3.3%
IC50 (U-937 [1]): 0.07 µM
inhibition at 3 µM (HT-1080 [15]): 98.7%
inhibition at 1 µM (HT-1080 [16]): 97.3%
inhibition at 30 µM (HT-1080 [17]): 96%
inhibition at 3 µM (HT-1080 [18]): 21.8%
inhibition at 30 µM (HT-1080 [19]): 5.5%
inhibition at 1 µM (HT-1080 [20]): 17.2%
inhibition at 30 µM (HT-1080 [21]): 54.6%
inhibition at 1 µM (HT-1080 [22]): 98.3%
IC50 (U-937 [2]): 3.6 µM
inhibition at 10 µM (HT-1080 [23]): 47.6%
inhibition at 10 µM (HT-1080 [24]): 94.9%
inhibition at 3 µM (HT-1080 [25]): 0.8%
inhibition at 10 µM (HT-1080 [26]): 96.4%
IC50 (U-937 [3]): 0.09 µM
inhibition at 1 µM (HT-1080 [27]): 95.8%
inhibition at 3 µM (HT-1080 [28]): 50.6%
inhibition at 3 µM (HT-1080 [29]): 30.6%
inhibition at 1 µM (HT-1080 [30]): -2%
inhibition at 30 µM (HT-1080 [31]): 29.2%
inhibition at 10 µM (HT-1080 [32]): 2.4%
inhibition at 30 µM (HT-1080 [33]): 95%

CC(C)(O)[C@@H](O)Cc1c(O)cc2occ(-c3ccc(O)cc3)c(=O)c2c1O [ERYCIBENIN A]
IC50 (U-937 [1]): 25 µM
IC50 (U-937 [2]): 46 µM
IC50 (U-937 [3]): 21 µM

COc1ccc2c(c1)O[C@H]1c3ccc(OC)cc3OC[C@@H]21 [HOMOPTEROCARPIN]
IC50 (U-937 [1]): > 100 µM
IC50 (U-937 [2]): > 100 µM
IC50 (U-937 [3]): > 100 µM

O=C1C[C@@H](c2ccc(O)c(O)c2)Oc2cc(O)cc(O)c21 [ERIODICTYOL]
IC50 (U-937 [1]): > 100 µM
IC50 (U-937 [2]): > 100 µM
IC50 (U-937 [3]): > 100 µM

COc1cc2c(cc1OC)[C@@H]1COc3cc(O)ccc3[C@@H]1O2 [SECUNDIFLOROL I]
IC50 (U-937 [1]): > 100 µM
IC50 (U-937 [2]): > 100 µM
IC50 (U-937 [3]): > 100 µM

COc1cc(OC)c2c(c1)O[C@H](c1ccc(O)cc1)CC2
IC50 (U-937 [1]): 40 µM
IC50 (U-937 [2]): 39 µM
IC50 (U-937 [3]): 10 µM

CC1(C)C=Cc2c(cc(O)c3c(=O)c(-c4ccc(O)cc4)coc23)O1 [DERRONE]
IC50 (U-937 [1]): 20 µM
IC50 (U-937 [2]): 26 µM
IC50 (U-937 [3]): 13 µM

CC(=O)O[C@H]1C(=O)[C@@]2(C)[C@H]([C@H](OC(=O)c3ccccc3)[C@]3(O)C[C@H](OC(=O)[C@H](O)[C@@H](NC(=O)c4ccccc4)c4ccccc4)C(C)=C1C3(C)C)[C@]1(OC(C)=O)CO[C@@H]1C[C@@H]2O [PACLITAXEL]
inhibition at 3 µM (HT-1080 [4]): 48.7%
inhibition at 10 µM (HT-1080 [5]): 81.4%
inhibition at 10 µM (HT-1080 [6]): 87.8%
inhibition at 30 µM (HT-1080 [7]): 70%
inhibition at 10 µM (HT-1080 [9]): 12.4%
inhibition at 30 µM (HT-1080 [10]): 79.9%
inhibition at 3 µM (HT-1080 [11]): 87%
inhibition at 1 µM (HT-1080 [12]): 46.2%
inhibition at 1 µM (HT-1080 [14]): 50.5%
inhibition at 3 µM (HT-1080 [15]): 79.8%
inhibition at 1 µM (HT-1080 [16]): 59.8%
inhibition at 30 µM (HT-1080 [17]): 50.3%
inhibition at 3 µM (HT-1080 [18]): 10.8%
inhibition at 30 µM (HT-1080 [19]): 10.3%
inhibition at 1 µM (HT-1080 [20]): -0.5%
inhibition at 30 µM (HT-1080 [21]): 89.2%
inhibition at 1 µM (HT-1080 [22]): 65.6%
inhibition at 10 µM (HT-1080 [23]): 70.9%
inhibition at 10 µM (HT-1080 [24]): 87.6%
inhibition at 3 µM (HT-1080 [25]): 12.6%
inhibition at 10 µM (HT-1080 [26]): 50%
inhibition at 1 µM (HT-1080 [27]): 43.7%
inhibition at 3 µM (HT-1080 [28]): 64.4%
inhibition at 3 µM (HT-1080 [29]): 79.8%
inhibition at 1 µM (HT-1080 [30]): 4.7%
inhibition at 30 µM (HT-1080 [31]): 10.3%
inhibition at 10 µM (HT-1080 [32]): 12.2%
inhibition at 30 µM (HT-1080 [33]): 87.7%

— ChEMBL document CHEMBL1139057, “Rotenoids and flavonoids with anti-invasion of HT1080, anti-proliferation of U937, and differentiation-inducing activity in HL-60 from Erycibe expansa” (Bioorg Med Chem, 2007)
